Laboratory results as given in US20240002377A1, “PYRROLOPYRIDINE COMPOUND AND APPLICATION THEREOF” (MEDSHINE DISCOVERY INC., priority 2020, published 2024).

Target: BTK^C481S (Homo sapiens (Human), UniProt Q06187, C481S)
Assay: BTK enzyme activity assay (33P-ATP filter-binding)
Format: biochemical
Settings: 200 μM ATP; 20 min pre-incubation, 2 h reaction at room temperature; radiometric filter-binding
Experimental: Assay Example 1: BTK Enzyme Activity Assay
The specific assay process of BTK enzyme activity assay is as follows: Buffer solution: 20 mM hydroxyethyl piperazine ethanesulfonic acid (Hepes) (pH 7.5), 10 mM magnesium chloride, 1 mM ethylenebis(oxyethylenenitrilo)tetraacetic acid (EGTA), 0.02% polyoxyethylene dodecyl ether (Brij35), 0.02 mg/mL BSA, 0.1 mM sodium vanadate (Na3VO4), 2 mM dithiothreitol (DTT), 1% DMSO, 200 μM adenosine triphosphate (ATP). • 1. The substrate was prepared in freshly prepared reaction buffer; • 2. The required cofactor was added to the above-mentioned substrate solution; • 3. The kinase BTK^C481S sis was added to the above-mentioned substrate solution and mix well; • 4. The compound dissolved in DMSO was added to the kinase reaction mixture through Echo550 (Acoustic technology; nanolite range), and the mixture was incubated at room temperature for 20 minutes; • 5. ^33P-ATP (specific activity of radioactivity is 10 μCi/μL) was added to the reaction mixture to initiate the reaction; • 6. The mixture was incubated at room temperature for 2 hours; • 7. The radioactivity was detected by filter-binding method; • 8. Kinase activity data represented the percentage of remaining kinase activity in the assay sample compared to the vehicle (dimethyl sulfoxide) reaction.

Chain of BTK^C481S (Q06187 whole entry C481S): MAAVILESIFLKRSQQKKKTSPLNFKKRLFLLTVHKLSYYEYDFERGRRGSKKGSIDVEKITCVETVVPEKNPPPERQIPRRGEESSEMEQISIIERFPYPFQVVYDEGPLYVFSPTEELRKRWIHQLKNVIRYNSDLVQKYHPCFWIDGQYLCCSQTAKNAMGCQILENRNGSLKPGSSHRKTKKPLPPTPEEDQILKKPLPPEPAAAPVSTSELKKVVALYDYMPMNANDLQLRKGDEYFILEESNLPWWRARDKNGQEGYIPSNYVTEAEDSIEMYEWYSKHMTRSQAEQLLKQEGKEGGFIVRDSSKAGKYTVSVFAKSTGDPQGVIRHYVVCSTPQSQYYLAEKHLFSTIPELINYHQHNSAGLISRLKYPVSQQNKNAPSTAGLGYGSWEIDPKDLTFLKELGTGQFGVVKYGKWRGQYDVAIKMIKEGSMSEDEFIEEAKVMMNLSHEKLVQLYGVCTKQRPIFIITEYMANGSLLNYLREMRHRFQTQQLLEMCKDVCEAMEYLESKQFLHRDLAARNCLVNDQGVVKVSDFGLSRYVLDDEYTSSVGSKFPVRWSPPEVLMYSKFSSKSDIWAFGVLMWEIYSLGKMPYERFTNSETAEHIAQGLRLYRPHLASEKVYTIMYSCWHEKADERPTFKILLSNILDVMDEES

| Structure (SMILES) | IC50 |
| --- | --- |
| N#Cc1cnc2[nH]cc(C(=O)c3ccc(Oc4ccccc4)cc3Cl)c2c1N[C@@H]1CC[C@@H](CO)OC1 [Compound 4] | 7.4 nM |
| N#Cc1cnc2[nH]cc(C(=O)c3ccc(Oc4ccccc4F)cc3Cl)c2c1N[C@@H]1CC[C@@H](CO)OC1 [Compound 2] | 11.7 nM |
| N#Cc1cnc2[nH]cc(C(=O)c3ccc(Oc4cccc(F)c4)cc3Cl)c2c1N[C@@H]1CC[C@@H](CO)OC1 [Compound 1] | 58.9 nM |

Now from value to compound:

| IC50 | Structure (SMILES) |
| --- | --- |
| 74.2 nM | CO[C@@H]1C[C@@H](CO)OC[C@@H]1Nc1c(C#N)cnc2[nH]cc(C(=O)c3ccc(Oc4ccccc4)cc3Cl)c12 [Compound 3] |
| 8.9 nM | O=C(c1ccc(Oc2ccccc2)cc1Cl)c1c[nH]c2ncc(F)c(N[C@@H]3CC[C@@H](CO)OC3)c12 [Compound 5] |
